From ChEMBL document CHEMBL3832081, “DailyMed|setid=caaf1b7f-eaab-4fb6-a955-b7d881038fef | METRONIDAZOLE - metronidazole gel|Sandoz Inc”

Assay: Evaluation of pharmacokinetic parameters for metronidazole following topical administration of metronidazole gel USP, 1% to the face of 13 patients with moderate to severe rosacea.
Format: ADME, organism-based
Design: dose 1 g, route topical
Details: human, in vivo, topical or ocular, dosed compound id 31, dosed compound name METRONIDAZOLE, gender male and female, regimen Once daily, study dosing duration 7 days, tissue Plasma

Cmax (1 g): 32 ng/mL
AUC (1 g, read-out: AUC(0-24)): 595 ng·h/mL
Tmax (dose 1 g, route topical): 6 to 10 h
Compound: Cc1ncc([N+](=O)[O-])n1CCO [METRONIDAZOLE]
